Assay results: publication PMC7232442, “Biofilm Eradication by Symmetrical Selenoesters for Food-Borne Pathogens” (Microorganisms, 2020)
pIC50: −log10 of the molar value. In brackets after ≈: the same amount, converted by molar mass. Several values for one entry are separate records, joined by “and”; a condition that tells them apart may be missing. Equal entries are not always repeated. Structures can show the parent of a compound that is named as a salt. Where two headings read alike, the source gives them in different places.

Tests used:
[1] = tested on: S. Typhimurium SE02 ΔacrB; assay: Real-time ethidium bromide accumulation assay; assay type: cell-based, Salmonella enterica serovar Typhimurium; details: for Relative Fluorescence Index (RFI): S. Typhimurium SE02 ΔacrB, ½ MIC, minute 60
Experimental: (§1) The impact of compounds on EB accumulation was determined by the automated EB method using a CLARIOstar Plus plate reader (BMG Labtech, UK). Firstly, the bacterial strain was incubated until it reached an optical density (OD) of 0.6 at 600 nm. The culture was washed with phosphate buffered saline (PBS; pH 7.4) and centrifuged at 13,000× g for 3 min, the cell pellet was re-suspended in PBS. The compounds were added at ½ MIC concentration to PBS containing a non-toxic concentration of EB (1 µg/mL). Then, 50 μL of the EB solution containing the compound were transferred into 96-well black microtiter plate (Greiner Bio-One Hungary Kft, Hungary), and 50 μL of bacterial suspension (OD600 0.6) were added to the each well. Then, the plates were placed into the CLARIOstar plate reader, and the fluorescence was monitored at excitation and emission wavelengths of 530 nm and 600 nm every minute for one hour on a real-time basis. From the real-time data, the activity of the compounds, namely the relative fluorescence index (RFI) of the last time point (minute 60) of the EB accumulation assay, was calculated according to the following formula:RFI = (RFtreated − RFuntreated)/RFuntreated(2) where RFtreated is the relative fluorescence (RF) at the last time point of EB retention curve in the presence of an inhibitor, and RFuntreated is the RF at the last time point of the EB retention curve of the untreated control having the solvent control (DMSO).

[2] = tested on: S. Typhimurium SE01 Wild-Type; assay: Real-time ethidium bromide accumulation assay; assay type: cell-based, Salmonella enterica serovar Typhimurium; details: ½ MIC, minute 60
Experimental: as §1

S. aureus ATCC 25923 [3] = assay: Real-time ethidium bromide accumulation assay; assay type: cell-based, Staphylococcus aureus; design: key to Relative Fluorescence Index (RFI): RFI = (RFtreated − RFuntreated)/RFuntreated at minute 60; details: for Relative Fluorescence Index (RFI): S. aureus ATCC 25923, ½ MIC, minute 60
Experimental: as §1

[4] = tested on: S. Typhimurium SE39 ΔtolC; assay: Real-time ethidium bromide accumulation assay; assay type: cell-based, Salmonella enterica serovar Typhimurium; design: key to Relative Fluorescence Index (RFI): RFI = (RFtreated − RFuntreated)/RFuntreated at minute 60; details: for Relative Fluorescence Index (RFI): S. Typhimurium SE39 ΔtolC, ½ MIC, minute 60; for Intracellular EB accumulation (in words): S. Typhimurium SE39, 60 min
Experimental: as §1

[5] = tested on: S. Typhimurium SE03 ΔacrA; assay: Real-time ethidium bromide accumulation assay; assay type: cell-based, Salmonella enterica serovar Typhimurium; design: key to Relative Fluorescence Index (RFI): RFI = (RFtreated − RFuntreated)/RFuntreated at minute 60; details: for Relative Fluorescence Index (RFI): S. Typhimurium SE03 ΔacrA, ½ MIC, minute 60
Experimental: as §1

S. aureus ATCC 25923 [6] = assay: Resistance modulation assay (checkerboard) with TET or CIP; assay type: cell-based, Staphylococcus aureus; details: S. aureus ATCC 25923; no selenocompound
Experimental: (§2) The resistance modulation effect of compounds with ciprofloxacin (CIP) and tetracycline (TET) antibiotics were evaluated by the checkerboard method on S. aureus strains. Briefly, CIP or TET was diluted in a 96-well microtiter plate by two-fold serial dilution in MH broth and then the compounds were added at subinhibitory concentrations (½ MIC). In this assay, only the tested compounds with well-defined MIC values were tested. Finally, 10^−4 dilution of the overnight bacterial culture in MH was added to each well. The final volume was 200 µL in each well. The microtiter plates were incubated at 37 °C for 18 h. MIC values in the presence of the antibiotics alone and in combination with Se-compounds were determined by visual inspection.

S. aureus MRSA 272123 [7] = assay: as above; assay type: cell-based, Staphylococcus aureus; details: S. aureus MRSA 272123; no selenocompound
Experimental: as §2

[8] = tested on: S. Typhimurium SE01 Wild-Type; assay: MIC determination by microdilution method; assay type: cell-based, Salmonella enterica serovar Typhimurium; details: Salmonella enterica
Experimental: (§3) The minimum inhibitory concentrations (MICs) of compounds were determined according to the Clinical and Laboratory Standard Institute guidelines (CLSI). MIC values of the compounds were determined by visual inspection. The solvent was also assayed to ensure there was no antibacterial effect and the concentration (1 v/v%) applied in the assays had no antibacterial activity. DMSO was used at subinhibitory concentration (1 v/v%) in the assays.

S. aureus MRSA = assay: Biofilm formation using crystal violet; assay type: cell-based, Staphylococcus aureus; details: for Biofilm inhibition: ½ MIC, 48 h
Experimental: The anti-biofilm effect of the tested compounds against S. aureus strains and wild-type S. Typhimurium SE01 was measured using crystal violet (CV; 0.1% (v/v)). This dye is used to detect the total biofilm biomass formed. Overnight cultures were diluted to OD of 0.1 at 600 nm in TSB medium. Then, the bacterial cultures were added to 96-well microtiter plates and the compounds were added at ½ MIC concentration. The final volume was 200 μL in each well. The microtiter plates were incubated at 30 °C for 48 h with gentle agitation (100 rpm). After the incubation period, TSB medium was discarded, and the plates were washed with tap water to remove unattached cells. Then 200 μL crystal violet was added to the wells and incubated for 15 min at room temperature. Then, CV was removed from the wells and the plates were washed again with tap water, and 200 μL of 70% ethanol was added to the wells. Finally, the biofilm formation was determined by measuring the OD at 600 nm using Multiscan EX ELISA plate reader (Thermo Labsystems, Cheshire, WA, USA). The anti-biofilm effect of compounds was expressed in the percentage (%) of decrease in biofilm formation.

S. aureus MRSA 272123 [9] = assay: Real-time ethidium bromide accumulation assay; assay type: cell-based, Staphylococcus aureus; details: for Relative Fluorescence Index (RFI): S. aureus MRSA 272123, ½ MIC, minute 60
Experimental: as §1

[10] = tested on: MRC-5 human embryonal lung fibroblast cells; assay: Cytotoxicity assay (MTT); assay type: cell-based; details: MRC-5 cells
Experimental: The adherent MRC-5 human embryonal lung fibroblast cells were cultured in 96-well flat-bottomed microtiter plates, using EMEM supplemented with 10% heat-inactivated fetal bovine serum. The density of the cells was adjusted to 1 × 10^4 cells in 100 μL per well, the cells were seeded overnight at 37 °C, 5% CO2, then the medium was removed from the plates containing the cells, and the dilutions of selenocompounds previously made in a separate plate were added to the cells in 200 μL.
The culture plates were incubated at 37 °C for 24 h; at the end of the incubation period, 20 μL of MTT (thiazolyl blue tetrazolium bromide, Sigma) solution (from a stock solution of 5 mg/mL) was added to each well. After incubation at 37 °C for 4 h, 100 μL of sodium dodecyl sulfate (SDS; Sigma) solution (10% in 0.01 M HCI) was added to each well and the plates were further incubated at 37 °C overnight. Cell growth was determined by measuring the optical density (OD) at 540/630 nm with Multiscan EX ELISA reader (Thermo Labsystems, Cheshire, WA, USA). Inhibition of the cell growth was determined according to the formula below:IC50 = 100 − [(ODsample − ODmedium control)/(ODcell control − ODmedium control)] × 100(1)
Results are expressed in terms of IC50, defined as the inhibitory dose that reduces the growth of the cells exposed to the tested compounds by 50%.

S. aureus MRSA 272123 [11] = assay: MIC determination by microdilution method; assay type: cell-based; details: Staphylococcus aureus
Experimental: as §3

[12] = tested on: Staphylococcus aureus ATCC 25923; assay: MIC determination by microdilution method; assay type: cell-based; details: S. aureus ATCC 25923
Experimental: as §3

[13] = tested on: S. Typhimurium SE39 ΔtolC; assay: MIC determination by microdilution method; assay type: cell-based, Salmonella enterica serovar Typhimurium; details: Salmonella enterica
Experimental: as §3

[14] = tested on: S. Typhimurium SE02 ΔacrB; assay: MIC determination by microdilution method; assay type: cell-based, Salmonella enterica serovar Typhimurium; details: Salmonella enterica
Experimental: as §3

[15] = tested on: S. Typhimurium SE03 ΔacrA; assay: MIC determination by microdilution method; assay type: cell-based, Salmonella enterica serovar Typhimurium; details: Salmonella enterica
Experimental: as §3

[16] = S. Typhimurium SE01 wild-type, read-out: MIC
[17] = S. aureus MRSA 272123, read-out: MIC
[18] = Staphylococcus aureus, ATCC25923

SMILES	Relative Fluorescence Index (RFI) [1]	Relative Fluorescence Index (RFI) [2]	Relative Fluorescence Index (RFI) (S. aureus ATCC 25923 [3])	Relative Fluorescence Index (RFI) [4]	Relative Fluorescence Index (RFI) [5]	MIC [8, 16] [µM]	Relative Fluorescence Index (RFI) (S. aureus MRSA 272123 [9])	pIC50 ([10]; Homo sapiens, MRC5, 24 h)	pIC50 ([10]; 24 h)	MIC (S. aureus MRSA 272123 [11]; [17]) [µM]	MIC [12, 18] [µM]	MIC [14] [µM]	MIC [15] [µM]	further results
N#CC(C#N)=NNc1cccc(Cl)c1 [CCCP, carbonyl cyanide m-chlorophenyl hydrazone, reference compound]	2.46	3.50	0.52	1.32	1.81	–	–	–	–	–	–	–	–	–
O=C(O)c1cn(C2CC2)c2cc(N3CCNCC3)c(F)cc2c1=O [CIP, ciprofloxacin-hydrochloride, reference compound]	–	–	–	–	–	–	–	–	–	–	–	–	–	MIC of the antibiotic alone (S. aureus ATCC 25923 [6]): 1.06 µM; MIC of the antibiotic alone (S. aureus MRSA 272123 [7]): 33.99 µM
N#CC[Se]C(=O)c1ccc(C(=O)[Se]CC#N)cc1 [Se-C1]	0.06	−0.08	0.14	0.13	0.04	25 (≈ 9.25 µg/mL)	−0.15	< 4.12	< 4.00	50 (≈ 18.5 µg/mL)	6.25 (≈ 2.31 µg/mL)	–	–	Biofilm inhibition (S. aureus MRSA): 43.7% and ~50%
N#CCC[Se]C(=O)c1cccc(C(=O)[Se]CC#N)c1 [Se-C2]	0.03	−0.10	0.08	0.25	0.09	25 (≈ 9.6 µg/mL)	−0.13	< 4.12	< 4.00	50 (≈ 19.2 µg/mL)	6.25 (≈ 2.4 µg/mL)	–	–	–
N#CC[Se]C(=O)c1cc(C(=O)[Se]CC#N)cc(C(=O)[Se]CC#N)c1 [Se-C3]	−0.02	−0.07	0.18	0.06	0.08	–	−0.05	< 4.12	< 4.00	–	1.56 (≈ 0.805 µg/mL)	12.5 (≈ 6.45 µg/mL)	12.5 (≈ 6.45 µg/mL)	MIC [13]: 25 µM (≈ 12.9 µg/mL); MIC ([8]; TYPHIMURIUM): 12.5 µM (≈ 6.45 µg/mL); MIC (S. aureus MRSA 272123 [11]; MRSA): 12.5 µM (≈ 6.45 µg/mL); MIC fold higher than the methylketone selenoester [12]: 4 fold
COC(=O)C[Se]C(=O)c1cccc(C(=O)[Se]CC(=O)OC)c1 [Se-E2]	0.70	0.09	0.67	0.59	0.56	> 100	0.33	< 4.12	< 4.00	100 (≈ 43.6 µg/mL)	12.5 (≈ 5.45 µg/mL)	> 100	> 100	Intracellular EB accumulation (in words) ([1]; S. Typhimurium SE02, 60 min): significantly increased; MIC [13]: > 100 µM; EPI activity (in words) (S. aureus ATCC 25923 [3]; reference (sensitive) S. aureus, 60 min): effective; EPI activity (in words) (S. aureus MRSA 272123 [9]; resistant S. aureus MRSA, 60 min): effective; Intracellular EB accumulation (in words) [4]: significantly increased; Intracellular EB accumulation (in words) ([5]; S. Typhimurium SE03, 60 min): significantly increased; MIC [12]: 12.5 µM (≈ 5.45 µg/mL)
CC(=O)C[Se]C(=O)c1cc(C(=O)[Se]CC(C)=O)cc(C(=O)[Se]CC(C)=O)c1 [Se-K3]	0.08	−0.20	0.16	0.44	0.28	50 (≈ 28.4 µg/mL)	−0.18	6.13	–	0.78 (≈ 0.442 µg/mL)	0.39 (≈ 0.221 µg/mL)	25 (≈ 14.2 µg/mL)	25 (≈ 14.2 µg/mL)	Anti-biofilm effect (in words) (S. aureus MRSA): most effective anti-biofilm agent; Biofilm inhibition (S. aureus MRSA): 84.7%; Intracellular EB accumulation (in words) [4]: significant EB accumulation; MIC [12]: 0.39 µM (≈ 0.221 µg/mL)
